# Measurements: patent US20100298141A1, “SUBSTITUTED PYRIDINE N-OXIDE HERBICIDES” (E. I. DU PONT DE NEMOURS AND COMPANY, priority 2007, published 2010)
# How the values were obtained:
# crabgrass = test: Test A pre-/postemergence greenhouse test; assay type: in vivo, Digitaria sanguinalis; details: for Crabgrass, Large plant response rating: 0 to 100 scale
# Summary of the method: (§1)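 Pots of loam–sand soil sown with the test species are sprayed preemergence on the soil surface; emerged seedlings (1–2 leaves, 2–10 cm) are sprayed postemergence at the same time. The vehicle is a non-phytotoxic solvent mixture with surfactant. Injury is scored visually after ~10 d in greenhouse.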
# morningglory = test: Test A pre-/postemergence greenhouse test; assay type: in vivo, Ipomoea spp.; details: for Morningglory plant response rating: 0 to 100 scale
# Summary of the method: as §1
# redroot pigweed = test: Test A pre-/postemergence greenhouse test; assay type: in vivo, Amaranthus retroflexus; details: for Pigweed plant response rating: 0 to 100 scale
# Summary of the method: as §1
# blackgrass = test: Test C pre-/postemergence test; assay type: in vivo, Alopecurus myosuroides; details: for Plant response rating, Blackgrass: scale 0 to 100, 0 no effect, 100 complete control
# Summary of the method: (§2)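 Seeds were planted and treated preemergence with test chemical in a non-phytotoxic solvent mixture containing surfactant. Postemergence applications of the same formulation went onto plants 2 to 18 cm tall (1- to 4-leaf stage). A dash marks no test result.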
# green foxtail = test: Test C pre-/postemergence test; assay type: in vivo, Setaria viridis; details: for Plant response rating, Foxtail, Green: scale 0 to 100, 0 no effect, 100 complete control
# Summary of the method: as §2
# Italian ryegrass = test: Test C pre-/postemergence test; assay type: in vivo, Lolium multiflorum; details: for Plant response rating, Ryegrass, Italian: scale 0 to 100, 0 no effect, 100 complete control
# Summary of the method: as §2
# wheat = test: Test C pre-/postemergence test; assay type: in vivo, Triticum aestivum; details: for Wheat plant response rating: preemergence, scale 0 (no effect) to 100 (complete control); for Plant response rating, Wheat: scale 0 to 100, 0 no effect, 100 complete control
# Summary of the method: as §2
# wild oat = test: Test C pre-/postemergence test; assay type: in vivo, Avena fatua; details: for Plant response rating, Oat, Wild: scale 0 to 100, 0 no effect, 100 complete control
# Summary of the method: as §2
# corn = test: Test C pre-/postemergence test; assay type: in vivo, Zea mays; details: for Plant response rating, Corn: scale 0 to 100, 0 no effect, 100 complete control
# Summary of the method: as §2
# woolly cupgrass = test: Test C pre-/postemergence test; assay type: in vivo, Eriochloa villosa; details: for Plant response rating, Cupgrass, Woolly: scale 0 to 100, 0 no effect, 100 complete control
# Summary of the method: as §2
# Goosegrass = test: Test C pre-/postemergence test; assay type: in vivo, Eleusin indica; details: for Plant response rating, Goosegrass: scale 0 to 100, 0 no effect, 100 complete control
# Summary of the method: as §2
# eastern black nightshade = test: Test C pre-/postemergence test; assay type: in vivo, Solanum ptycanthum
# Source text: Seeds of plant species selected from blackgrass (Alopecurus myosuroides), downy brome (Bromus tectorum), green foxtail (Setaria viridis), Italian ryegrass (Lolium multiflorum), wheat (Triticum aestivum), wild oat (Avena fatua), catchweed bedstraw (Galium aparine), Russian thistle (Salsola kali), […] (Cynodon dactylon), Surinam grass (Brachiaria decumbens), cocklebur (Xanthium strumarium), corn (Zea mays), crabgrass (Digitaria sanguinalis), woolly cupgrass (Eriochloa villosa), giant foxtail (Setaria faberii), Goosegrass (Eleusin indica), johnsongrass (Sorghum halepense), kochia (Kochia scoparia), lambsquarters (Chenopodium album), morningglory (Ipomoea coccinea), eastern black nightshade (Solanum ptycanthum), yellow nutsedge (Cyperus esculentus), pigweed (Amaranthus retroflexus), common ragweed (Ambrosia elation), soybean (Glycine max), common (oilseed) sunflower (Helianthus annuus), and velvetleaf (Abutilon theophrasti) were planted and treated preemergence with test chemicals formulated in a non-phytotoxic solvent mixture which included a surfactant. At the same time, plants selected from these crop and weed species and also winter barley (Hordeum vulgare), canarygrass (Phalaris minor), and chickweed (Stellaria media) were treated with postemergence applications of some of the test chemicals formulated in the same manner. Plants ranged in height from 2 to 18 cm (1- to 4-leaf stage) for postemergence treatments. […] At time of treatment, test pots were flooded to 3 cm above the soil surface, treated by application of test compounds directly to the paddy water, and then maintained at that water depth for the duration of the test. […] A dash (-) response means no test result.
# yellow nutsedge = test: Test C pre-/postemergence test; assay type: in vivo, Cyperus esculentus; details: for Plant response rating, Nutsedge, Yellow: scale 0 to 100, 0 no effect, 100 complete control
# Summary of the method: as §2
# common ragweed = test: Test C pre-/postemergence test; assay type: in vivo, Ambrosia elation; details: for Plant response rating, Ragweed: scale 0 to 100, 0 no effect, 100 complete control
# Summary of the method: as §2
# [1] = system: common (oilseed) sunflower; test: Test C pre-/postemergence test; assay type: in vivo, Helianthus annuus; details: for Sunflower plant response rating: preemergence, scale 0 (no effect) to 100 (complete control)
# Summary of the method: as §2
# [2] = Postemergence, 125 g ai/ha, 0 is no effect, 100 is complete control
# [3] = Postemergence, 500 g ai/ha, 0 is no effect, 100 is complete control
# [4] = Preemergence, 125 g ai/ha, 0 no effect, 100 complete control
# [5] = Preemergence, 500 g ai/ha, 0 to 100 scale where 0 is no effect and 100 is complete control
# [6] = 31 g ai/ha, Preemergence, scale 0 to 100
# [7] = 62 g ai/ha, preemergence, scale 0 (no effect) to 100 (complete control)
# [8] = preemergence, 125 g ai/ha, scale 0 (no effect) to 100 (complete control)
smiles,measurement,setting,value
Cc1cc[n+]([O-])c([S+]([O-])Cc2c(C(F)(F)F)nn(C)c2OC(F)F)c1 (centres unmarked) [Compound 1],"Crabgrass, Large plant response rating",crabgrass; [2],60
same,"Crabgrass, Large plant response rating",crabgrass; [3],90
same,"Crabgrass, Large plant response rating",crabgrass; [4],100
same,"Plant response rating, Crabgrass, Large",crabgrass; [5],100
same,Morningglory plant response rating,morningglory; [2],70
same,Morningglory plant response rating,morningglory; [3],90
same,Morningglory plant response rating,morningglory; [4],70
same,"Plant response rating, Morningglory",morningglory; [5],80
same,Pigweed plant response rating,redroot pigweed; [2],100
same,Pigweed plant response rating,redroot pigweed; [3],100
same,Pigweed plant response rating,redroot pigweed; [4],100
same,"Plant response rating, Pigweed",redroot pigweed; [5],100
same,Blackgrass plant response rating,blackgrass; [6],70
same,Blackgrass plant response rating,blackgrass; [7],100
same,"Plant response rating (0 to 100), Blackgrass","blackgrass; Postemergence, 31 g ai/ha",0
same,"Plant response rating, Blackgrass","blackgrass; Postemergence, 62 g ai/ha",0
same,"Plant response rating, Blackgrass","blackgrass; Postemergence, 125 g ai/ha",0
same,"Plant response rating, Blackgrass","blackgrass; Postemergence, 250 g ai/ha",0
same,"Plant response rating (0 to 100), Blackgrass","blackgrass; Preemergence, 250 g ai/ha",100
same,Blackgrass plant response rating,blackgrass; [8],100
same,"Foxtail, Green plant response rating",green foxtail; [6],100
same,"Foxtail, Green plant response rating",green foxtail; [7],100
same,"Plant response rating (0 to 100), Foxtail, Green","green foxtail; Postemergence, 31 g ai/ha",0
same,"Plant response rating, Foxtail, Green","green foxtail; Postemergence, 62 g ai/ha",0
same,"Plant response rating, Foxtail, Green","green foxtail; Postemergence, 125 g ai/ha",30
same,"Plant response rating, Foxtail, Green","green foxtail; Postemergence, 250 g ai/ha",60
same,"Plant response rating (0 to 100), Foxtail, Green","green foxtail; Preemergence, 250 g ai/ha",100
same,"Foxtail, Green plant response rating",green foxtail; [8],100
same,"Ryegrass, Italian plant response rating",Italian ryegrass; [6],60
same,"Ryegrass, Italian plant response rating",Italian ryegrass; [7],100
same,"Plant response rating (0 to 100), Ryegrass, Italian","Italian ryegrass; Postemergence, 31 g ai/ha",0
same,"Plant response rating (0 to 100), Ryegrass, Italian","Italian ryegrass; Postemergence, 62 g ai/ha",0
same,"Plant response rating, Ryegrass, Italian","Italian ryegrass; Postemergence, 125 g ai/ha",0
same,"Plant response rating, Ryegrass, Italian","Italian ryegrass; Postemergence, 250 g ai/ha",30
same,"Plant response rating (0 to 100), Ryegrass, Italian","Italian ryegrass; Preemergence, 250 g ai/ha",100
same,"Ryegrass, Italian plant response rating",Italian ryegrass; [8],100
same,Wheat plant response rating,wheat; 62 g ai/ha,30
same,"Plant response rating (0 to 100), Wheat","wheat; Postemergence, 31 g ai/ha",0
same,"Plant response rating (0 to 100), Wheat","wheat; Postemergence, 62 g ai/ha",0
same,"Plant response rating, Wheat","wheat; Postemergence, 125 g ai/ha",0
same,"Plant response rating, Wheat","wheat; Postemergence, 250 g ai/ha",0
same,"Plant response rating (0 to 100), Wheat","wheat; Preemergence, 250 g ai/ha",95
same,Wheat plant response rating,wheat; 125 g ai/ha,60
same,"Oat, Wild plant response rating",wild oat; [6],50
same,"Oat, Wild plant response rating",wild oat; [7],85
same,"Plant response rating (0 to 100), Oat, Wild","wild oat; Postemergence, 31 g ai/ha",0
same,"Plant response rating, Oat, Wild","wild oat; Postemergence, 62 g ai/ha",0
same,"Plant response rating, Oat, Wild","wild oat; Postemergence, 125 g ai/ha",0
same,"Plant response rating, Oat, Wild","wild oat; Postemergence, 250 g ai/ha",0
same,"Plant response rating (0 to 100), Oat, Wild","wild oat; Preemergence, 250 g ai/ha",100
same,"Oat, Wild plant response rating",wild oat; [8],95
same,Corn plant response rating,corn; [6],50
same,Corn plant response rating,corn; [7],60
same,"Plant response rating (0 to 100), Corn","corn; Postemergence, 31 g ai/ha",0
same,"Plant response rating, Corn","corn; Postemergence, 62 g ai/ha",0
same,"Plant response rating, Corn","corn; Postemergence, 125 g ai/ha",0
same,"Plant response rating, Corn","corn; Postemergence, 250 g ai/ha",5
same,"Plant response rating (0 to 100), Corn","corn; Preemergence, 250 g ai/ha",98
same,Corn plant response rating,corn; [8],95
same,"Cupgrass, Woolly plant response rating",woolly cupgrass; [6],40
same,"Cupgrass, Woolly plant response rating",woolly cupgrass; [7],60
same,"Plant response rating (0 to 100), Cupgrass, Woolly","woolly cupgrass; Postemergence, 31 g ai/ha",0
same,"Plant response rating, Cupgrass, Woolly","woolly cupgrass; Postemergence, 62 g ai/ha",0
same,"Plant response rating, Cupgrass, Woolly","woolly cupgrass; Postemergence, 125 g ai/ha",40
same,"Plant response rating, Cupgrass, Woolly","woolly cupgrass; Postemergence, 250 g ai/ha",70
same,"Plant response rating (0 to 100), Cupgrass, Woolly","woolly cupgrass; Preemergence, 250 g ai/ha",90
same,"Cupgrass, Woolly plant response rating",woolly cupgrass; [8],90
same,Goosegrass plant response rating,Goosegrass; [6],70
same,Goosegrass plant response rating,Goosegrass; [7],100
same,"Plant response rating (0 to 100), Goosegrass","Goosegrass; Postemergence, 31 g ai/ha",0
same,"Plant response rating, Goosegrass","Goosegrass; Postemergence, 62 g ai/ha",0
same,"Plant response rating, Goosegrass","Goosegrass; Postemergence, 125 g ai/ha",30
same,"Plant response rating, Goosegrass","Goosegrass; Postemergence, 250 g ai/ha",80
same,"Plant response rating (0 to 100), Goosegrass","Goosegrass; Preemergence, 250 g ai/ha",100
same,Goosegrass plant response rating,Goosegrass; [8],100
same,Nightshade plant response rating,eastern black nightshade; [6],70
same,Nightshade plant response rating,eastern black nightshade; [7],100
same,"Plant response rating (0 to 100), Nightshade","eastern black nightshade; Preemergence, 250 g ai/ha",100
same,Nightshade plant response rating,eastern black nightshade; [8],100
same,"Nutsedge, Yellow plant response rating",yellow nutsedge; [6],0
same,"Nutsedge, Yellow plant response rating",yellow nutsedge; [7],95
same,"Plant response rating (0 to 100), Nutsedge, Yellow","yellow nutsedge; Postemergence, 31 g ai/ha",0
same,"Plant response rating, Nutsedge, Yellow","yellow nutsedge; Postemergence, 62 g ai/ha",0
same,"Plant response rating, Nutsedge, Yellow","yellow nutsedge; Postemergence, 125 g ai/ha",0
same,"Plant response rating, Nutsedge, Yellow","yellow nutsedge; Postemergence, 250 g ai/ha",0
same,"Plant response rating (0 to 100), Nutsedge, Yellow","yellow nutsedge; Preemergence, 250 g ai/ha",100
same,"Nutsedge, Yellow plant response rating",yellow nutsedge; [8],100
same,Ragweed plant response rating,common ragweed; [6],0
same,Ragweed plant response rating,common ragweed; [7],10
same,"Plant response rating (0 to 100), Ragweed","common ragweed; Postemergence, 31 g ai/ha",0
same,"Plant response rating (0 to 100), Ragweed","common ragweed; Postemergence, 62 g ai/ha",0
same,"Plant response rating, Ragweed","common ragweed; Postemergence, 125 g ai/ha",10
same,"Plant response rating, Ragweed","common ragweed; Postemergence, 250 g ai/ha",20
same,"Plant response rating (0 to 100), Ragweed","common ragweed; Preemergence, 250 g ai/ha",85
same,Ragweed plant response rating,common ragweed; [8],85
same,Sunflower plant response rating,[1]; 62 g ai/ha,5
same,"Plant response rating (0 to 100), Sunflower","[1]; Preemergence, 250 g ai/ha",75
same,Sunflower plant response rating,[1]; 125 g ai/ha,25
